EC50 and CC50 data for 34 molecules are collected here from patent US11472808B2, “Substituted pyrrolo[1,2-c]pyrimidines as hepatitis B antiviral agents” (Enanta Pharmaceuticals, Inc., priority 2019, dated 2022).

The term EC50 denotes the concentration at which the effect is half-maximal. For orientation: CC50 means the concentration at which the toxic effect on the cells reaches its halfway point.

In one data set the test system is HBV. Briefly: HepAD38 anti-HBV assay: reduction of viral product accumulation (virion DNA qPCR, HBsAg/HBeAg ELISA). In kind it is cell-based. Conditions: Hepatitis B virus, 120 h; HepAD38 cells; concentration reducing viral product accumulation by 50% relative to no drug controls; harvest five days after compound addition; read-out: HepAD38 EC50. The method in brief: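 Tetracycline-free HepAD38 cells treated 5 days with compound (1:200 DMSO dilution), or 8 days with media and compound refreshed on d2 and d5. Virion DNA quantified by qPCR; HBsAg or HBeAg by ELISA. EC50 is the concentration reducing viral product accumulation 50% versus no-drug controls.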
(In qPCR the cycle at which signal appears reflects the starting amount.)

Data set [1] is described as follows: Compound toxicity, ATPLite total ATP levels. In kind it is cell-based. Conditions: human, HepG2 cells; concentration reducing total ATP levels by 50% relative to no drug controls; ATPLite three days after compound addition. As for the experimental part: Compound toxicity is evaluated by seeding cells at 15,000 cells/well and treating with compound as described above.
In general terms: In ATP-based viability assays light output follows the ATP content of the culture.

Molecules are shown by their SMILES.

Regarding `O=S(=O)(N[C@H]1CC2=C(c3ccn(C(F)F)n3)[C@H](c3ccc(F)cc3Cl)N=C(c3nccs3)N2C1)N[C@H](c1ccccn1)C1CC1` [Example 353], in the data set with HBV, the concentration for a half-maximal effect (EC50) is less than 0.1 µM. In data set [1], the half-maximal cytotoxic concentration (CC50) at 3 days was more than 25 µM.

As for `CS(=O)(=O)Nc1ccc(S(=O)(=O)N[C@H]2CC3=C(c4ccn(C(F)F)n4)[C@H](c4ccc(F)cc4Cl)N=C(c4nccs4)N3C2)cc1` [Example 357], in the data set on HBV, the EC50 was less than 0.1 µM. This molecule showed a cytotoxic concentration (CC50) at 3 days in data set [1] of more than 25 µM.

For `O=C1NC2(CO1)CN(S(=O)(=O)N[C@H]1CC3=C(c4ccn(C(F)F)n4)[C@H](c4ccc(F)cc4Cl)N=C(c4nccs4)N3C1)C2` [Example 358], in the data set on HBV, the EC50 is less than 0.1 µM. For the same molecule, the CC50 at 3 days in data set [1] is more than 25 µM.

For the molecule `CC(C)C[C@H](NS(=O)(=O)N[C@H]1CC2=C(c3ccn(C(F)F)n3)[C@H](c3ccc(F)cc3Cl)N=C(c3nccs3)N2C1)c1ccccn1` [Example 359], the EC50 in the data set on HBV was less than 0.1 µM. The same molecule returned a cytotoxic concentration (CC50) at 3 days in data set [1] of more than 25 µM.

Regarding `O=S(=O)(NC(c1ccccn1)c1ccccn1)N[C@H]1CC2=C(c3ccn(C(F)F)n3)[C@H](c3ccc(F)cc3Cl)N=C(c3nccs3)N2C1` [Example 361], the EC50 in the data set on HBV was less than 0.1 µM. Also, in data set [1], the CC50 at 3 days was more than 25 µM.

Take `O=S(=O)(N[C@H]1CC2=C(c3ccn(C(F)F)n3)[C@H](c3ccc(F)cc3Cl)N=C(c3nccs3)N2C1)c1ncc[nH]1` [Example 362]: the EC50 in the data set on HBV is less than 0.1 µM. The molecule further had a CC50 at 3 days in data set [1] of more than 25 µM.

On to `C[C@]1(NS(=O)(=O)C2CCC(O)(c3ccccn3)CC2)CC2=C(c3ccn(C(F)F)n3)[C@H](c3ccc(F)cc3Cl)N=C(c3nccs3)N2C1` (some centres unmarked) [Example 363], for which the EC50 in the data set on HBV is less than 0.1 µM. Besides, the CC50 at 3 days in data set [1] is 10 to 25 µM.

In the case of `O=S(=O)(N[C@H]1CC2=C(c3ccn(C(F)F)n3)[C@H](c3ccc(F)cc3Cl)N=C(c3nccs3)N2C1)c1ccccn1` [Example 364], the EC50 in the data set with HBV was less than 0.1 µM. Also, the CC50 at 3 days in data set [1] was more than 25 µM.

For the molecule `O=S(=O)(N[C@H]1CC2=C(c3ccn(C(F)F)n3)[C@H](c3ccc(F)cc3Cl)N=C(c3nccs3)N2C1)c1cccnc1` [Example 365], the EC50 with HBV was less than 0.1 µM. Also, the CC50 at 3 days in data set [1] was more than 25 µM.

As to `O=S(=O)(N[C@H]1CC2=C(c3ccn(C(F)F)n3)[C@H](c3ccc(F)cc3Cl)N=C(c3nccs3)N2C1)c1ccccc1` [Example 367], the concentration for a half-maximal effect (EC50) with HBV was less than 0.1 µM. In data set [1], this molecule yielded a cytotoxic concentration (CC50) at 3 days of more than 25 µM.

With `O=S(=O)(N[C@H]1CC2=C(c3ccn(C(F)F)n3)[C@H](c3ccc(F)cc3Cl)N=C(c3nccs3)N2C1)c1ccc(Br)cn1` [Example 368], in the data set with HBV, the EC50 is less than 0.1 µM. In data set [1], the CC50 at 3 days was more than 25 µM.

As to `CCOC(=O)CC1(S(=O)(=O)N[C@H]2CC3=C(c4ccn(C(F)F)n4)[C@H](c4ccc(F)cc4Cl)N=C(c4nccs4)N3C2)CC1` [Example 369], the EC50 in the data set with HBV was less than 0.1 µM. In addition, the CC50 at 3 days in data set [1] is more than 25 µM.

On to `O=S(=O)(N[C@H]1CC2=C(c3ccn(C(F)F)n3)[C@H](c3ccc(F)cc3Cl)N=C(c3nccs3)N2C1)[C@H]1C[C@H](O)C1` [Example 370], for which the EC50 in the data set with HBV was less than 0.1 µM. The CC50 at 3 days in data set [1] is more than 25 µM.

Consider `O=S(=O)(N[C@H]1CC2=C(c3ccn(C(F)F)n3)[C@H](c3ccc(F)cc3Cl)N=C(c3nccs3)N2C1)[C@H]1C[C@](O)(c2ccccn2)C1` [Example 371], for which the EC50 in the data set on HBV was less than 0.1 µM. The same molecule returned a CC50 at 3 days in data set [1] of 10 to 25 µM.

On to `O=S1(=O)NCCN1[C@H]1CC2=C(c3ccn(C(F)F)n3)[C@H](c3ccc(F)cc3Cl)N=C(c3nccs3)N2C1` [Example 376], for which the EC50 in the data set on HBV is less than 0.1 µM. In data set [1], this molecule had a 50% cytotoxic concentration (CC50) at 3 days of more than 25 µM.

For the molecule `O=S(=O)(N[C@H]1CC2=C(c3ccn(C(F)F)n3)[C@H](c3ccc(F)cc3Cl)N=C(c3nccs3)N2C1)C1(c2ccccn2)CC1` [Example 377], the EC50 in the data set on HBV was less than 0.1 µM. Besides, the CC50 at 3 days in data set [1] is more than 25 µM.

With `O=S(=O)(N[C@H]1CC2=C(c3ccn(C(F)F)n3)[C@H](c3ccc(F)cc3Cl)N=C(c3nccs3)N2C1)c1cccc(-c2cccnc2)n1` [Example 378], the EC50 with HBV was less than 0.1 µM. Also, the CC50 at 3 days in data set [1] was more than 25 µM.

On to `O=S(=O)(N[C@H]1CC2=C(c3ccn(C(F)F)n3)[C@H](c3ccc(F)cc3Cl)N=C(c3nccs3)N2C1)C1(CCO)CC1` [Example 379], for which, in the data set with HBV, the EC50 was less than 0.1 µM. Besides, the CC50 at 3 days in data set [1] was 10 to 25 µM.

As for `O=S(=O)(N[C@H]1CC2=C(c3ccn(C(F)F)n3)[C@H](c3ccc(F)cc3Cl)N=C(c3nccs3)N2C1)c1ccc([C@H]2CC[C@H](O)CC2)cc1` [Example 381], the EC50 in the data set on HBV was less than 0.1 µM. Moreover, in data set [1], the CC50 at 3 days fell in the range of 10 to 25 µM.

Consider `Nc1cccc(S(=O)(=O)N[C@H]2CC3=C(c4ccn(C(F)F)n4)[C@H](c4ccc(F)cc4Cl)N=C(c4nccs4)N3C2)n1` [Example 383], for which the EC50 in the data set with HBV is less than 0.1 µM. For the same molecule, the 50% cytotoxic concentration (CC50) at 3 days in data set [1] is more than 25 µM.

On to `O=S(=O)(N[C@H]1CC2=C(c3ccn(C(F)F)n3)[C@H](c3ccc(F)cc3Cl)N=C(c3nccs3)N2C1)c1ccc([C@H]2CC[C@](O)(c3ccccn3)CC2)cc1` [Example 385], for which the EC50 with HBV is less than 0.1 µM. The molecule further had a CC50 at 3 days in data set [1] of more than 25 µM.

Turning to `O=S(=O)(N[C@H]1CC2=C(c3ccn(C(F)F)n3)[C@H](c3ccc(F)cc3Cl)N=C(c3nccs3)N2C1)c1cccc(F)c1` [Example 386], in the data set with HBV, the EC50 was less than 0.1 µM. For the same molecule, in data set [1], the CC50 at 3 days was 10 to 25 µM.

In the case of `O=S(=O)(N[C@H]1CC2=C(c3ccn(C(F)F)n3)[C@H](c3ccc(F)cc3Cl)N=C(c3nccs3)N2C1)c1ccccc1F` [Example 387], in the data set with HBV, the EC50 is less than 0.1 µM. In data set [1], this molecule had a CC50 at 3 days of more than 25 µM.

As for `O=S(=O)(N[C@H]1CC2=C(c3ccn(C(F)F)n3)[C@H](c3ccc(F)cc3Cl)N=C(c3nccs3)N2C1)c1ccc(F)cc1F` [Example 388], the EC50 in the data set with HBV is less than 0.1 µM. The CC50 at 3 days in data set [1] is more than 25 µM.

On to `O=S(=O)(N[C@H]1CC2=C(c3ccn(C(F)F)n3)[C@H](c3ccc(F)cc3Cl)N=C(c3nccs3)N2C1)c1ccc(Br)cc1` [Example 389], for which the concentration giving a half-maximal response (EC50) with HBV is less than 0.1 µM. The CC50 at 3 days in data set [1] is more than 25 µM.

Regarding `Cn1ccc(S(=O)(=O)N[C@H]2CC3=C(c4ccn(C(F)F)n4)[C@H](c4ccc(F)cc4Cl)N=C(c4nccs4)N3C2)n1` [Example 394], in the data set with HBV, the EC50 is less than 0.1 µM. Besides, the CC50 at 3 days in data set [1] is more than 25 µM.

In the case of `Cc1ccc(S(=O)(=O)N[C@H]2CC3=C(c4ccn(C(F)F)n4)[C@H](c4ccc(F)cc4Cl)N=C(c4nccs4)N3C2)cn1` [Example 401], the EC50 in the data set with HBV is less than 0.1 µM. The molecule further returned a CC50 at 3 days in data set [1] of more than 25 µM.

With `O=S(=O)(N[C@H]1CC2=C(c3ccn(C(F)F)n3)[C@H](c3ccc(F)cc3Cl)N=C(c3nccs3)N2C1)c1ccc(-c2cccnc2)cn1` [Example 403], the EC50 in the data set with HBV is less than 0.1 µM. The same molecule yielded a CC50 at 3 days in data set [1] of more than 25 µM.

For `C[C@]1(O)CC[C@@H](c2ccc(S(=O)(=O)N[C@H]3CC4=C(c5ccn(C(F)F)n5)[C@H](c5ccc(F)cc5Cl)N=C(c5nccs5)N4C3)cc2)CC1` [Example 410], in the data set with HBV, the EC50 was less than 0.1 µM. Also, in data set [1], the CC50 at 3 days is more than 25 µM.

With `C[C@]1(O)CC[C@H](c2ccc(S(=O)(=O)N[C@H]3CC4=C(c5ccn(C(F)F)n5)[C@H](c5ccc(F)cc5Cl)N=C(c5nccs5)N4C3)cc2)CC1` [Example 411], the EC50 in the data set with HBV was less than 0.1 µM. This molecule showed a CC50 at 3 days in data set [1] of 10 to 25 µM.

On to `O=C1NC[C@@H](CNC(=O)c2cccc(S(=O)(=O)N[C@H]3CC4=C(c5ccn(C(F)F)n5)[C@H](c5ccc(F)cc5Cl)N=C(c5nccs5)N4C3)c2)O1` [Example 420], for which the EC50 with HBV was less than 0.1 µM. In data set [1], the CC50 at 3 days is more than 25 µM.

Turning to `O=C1NC[C@H](CNC(=O)c2cccc(S(=O)(=O)N[C@H]3CC4=C(c5ccn(C(F)F)n5)[C@H](c5ccc(F)cc5Cl)N=C(c5nccs5)N4C3)c2)O1` [Example 421], the EC50 with HBV was less than 0.1 µM. The same molecule gave a CC50 at 3 days in data set [1] of more than 25 µM.

`O=S(=O)(N[C@H]1CC2=C(c3ccn(C(F)F)n3)[C@H](c3ccc(F)cc3Cl)N=C(c3nccs3)N2C1)C1(C[C@@H](O)CO)CC1` [Example 424]: the EC50 with HBV is less than 0.1 µM. Further, the CC50 at 3 days in data set [1] is more than 25 µM.

Regarding `O=C(O)[C@H]1CC[C@H](c2ccc(S(=O)(=O)N[C@H]3CC4=C(c5ccn(C(F)F)n5)[C@H](c5ccc(F)cc5Cl)N=C(c5nccs5)N4C3)cc2)CC1` [Example 426], the EC50 in the data set on HBV is less than 0.1 µM. Moreover, in data set [1], the CC50 at 3 days was more than 25 µM.
